Counter-ions that a name gives are not always drawn.
Key:
[1] = biological target: T1, S1P1 (Homo sapiens, UniProt P21453); assay: Radioligand binding assay, 33P-S1P labelled S1P1 receptor; settings: 33P-S1P labelled receptors
T1 construct: expressed in transfected cells; membranes
Procedure: (§1) HEK293 or CHO cells expressing S1P1-5, are prepared in ˜0.5×10^5 cells/well. Cells are plated into each well of a 6-well plate in 2 ml of growth media (OptiMEM, Invitrogen). Two micrograms receptor plasmid DNA is mixed in 200 ul OptiMEM, and combined with 6 ul Lipofectamine (2000-9, Invitrogen). The mixture is added drop wise to 2 ml of growth media covering the cells in each well. The cells are allowed to transfect for 8-18 hours at room temperature. The OptiMEM transfection medium is replaced with 2 ml fresh serum-containing medium an incubated for 48 hours. The cells are diluted 1:10 in selection media (OptiMEM. Invitrogen) containing 0.8 mg/ml G418 in 10 cm dishes. Colonies are allowed to form (˜1-2 weeks), and 12 colonies from each dish are independently harvested with cloning disks and placed into 24-well plates.
(§2) Cell membranes from CHO-S1P1-5 or HEK-S1P1-5 transfected cells are prepared by homogenizing the cells in an ice cold solution containing 25 mM Tris, 5 mM EDTA, 5 mM EGTA, and Complete Protease Inhibitor Cocktail, EDTA-Free (Roche #1 873 580). Cells are lysed by dounce homogenization and centrifugation at 20,000×g for 20 minutes at 4° C. Membrane pellets are resuspended in the same buffer and centrifuged again at 20,000×g for 20 minutes at 4° C. Final membrane pellet is resuspended in 20 mM HEPES, pH 7.5, 5 mM MgCl2, 1 mM CaCl2. Protein concentration is determined using the Micro BCA protein assay (Pierce #23235).
(§3) Serial dilutions of test compounds in DMSO are prepared in 96 well polypropylene plates. Using the FX robot 1:50 intermediate dilutions are made to assay buffer (20 mM HEPES, pH 7.5, 5 mM MgCl2, 1 mM CaCl2, 4 mg/ml fatty-acid free BSA). This intermediate is further diluted 1:10 to the final assay reaction. Final DMSO concentration in the reaction is 0.2%. Final reaction contains 50 pM ^33P-S1P (Perkin Elmer; Special Order), and 2.5 μg of cell membranes. The reaction is incubated at room temperature for 30 minutes and stopped by filtration through GF/B UniFilter Plates (Perkin Elmer #6005177) and washed four times with wash buffer containing 50 mM Tris pH 7.4, 0.025% Tween-20. The filter plates are dried for approximately 20 minutes in an oven at 50° C. Back seals are adhered to the filter plates and 40 μl of Microscint-20 scintillation fluid is added (Perkin Elmer #6013621). The filter plates are sealed, shaken for 30 minutes at room temperature, and counted on a Top Count (PerkinElmer).

[2] = biological target: T2, S1P2 (Homo sapiens, UniProt O95136); assay: Radioligand binding assay, 33P-S1P labelled S1P2 receptor; settings: 33P-S1P labelled receptors
T2 construct: expressed in transfected cells; membranes
Procedure: as §1, §2
(§4) Serial dilutions of test compounds in DMSO are prepared in 96 well polypropylene plates. Using the FX robot 1:50 intermediate dilutions are made to assay buffer (20 mM HEPES, pH 7.5, 5 mM MgCl2, 1 mM CaCl2, 4 mg/ml fatty-acid free BSA). This intermediate is further diluted 1:10 to the final assay reaction. Final DMSO concentration in the reaction is 0.2%. […] The filter plates are sealed, shaken for 30 minutes at room temperature, and counted on a Top Count (PerkinElmer).

[3] = biological target: T3, S1P3 (Homo sapiens, UniProt Q99500); assay: Radioligand binding assay, 33P-S1P labelled S1P3 receptor; settings: 33P-S1P labelled receptors
T3 construct: expressed in transfected cells; membranes
Procedure: as §1, §2, §3

[4] = biological target: T4, S1P4 (Homo sapiens, UniProt O95977); assay: Radioligand binding assay, 33P-S1P labelled S1P4 receptor; settings: 33P-S1P labelled receptors
T4 construct: expressed in transfected cells; membranes
T4 sequence (O95977 1-384): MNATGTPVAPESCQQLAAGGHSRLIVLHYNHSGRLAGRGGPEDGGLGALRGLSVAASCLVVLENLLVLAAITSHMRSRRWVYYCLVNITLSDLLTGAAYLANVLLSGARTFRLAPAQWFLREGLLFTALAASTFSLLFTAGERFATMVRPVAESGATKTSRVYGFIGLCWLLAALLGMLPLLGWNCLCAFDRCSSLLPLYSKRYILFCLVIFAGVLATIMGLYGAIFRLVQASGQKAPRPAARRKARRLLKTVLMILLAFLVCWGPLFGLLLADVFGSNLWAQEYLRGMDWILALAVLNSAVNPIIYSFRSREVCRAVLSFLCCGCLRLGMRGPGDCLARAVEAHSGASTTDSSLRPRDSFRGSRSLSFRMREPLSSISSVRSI
Procedure: as §1, §2, §3

[5] = biological target: T5, S1P5 (Homo sapiens, UniProt Q9H228); assay: Radioligand binding assay, 33P-S1P labelled S1P5 receptor; settings: 33P-S1P labelled receptors
T5 construct: expressed in transfected cells; membranes
Procedure: as §1, §2, §4

[6] = Terminal half life and clearance from blood samples; format: in vivo, CD1 mice; settings: CD1, mouse, oral; for clearance: read-out: Cl (ml/min/kg) (clearance)
Description: Agonium of S1P1 results in S1P1 internalization, inhibiting lymphocyte egress into circulation, and is clinically presented as lymphopenia (Chiba, Pharmacology & Therapeutics 2005; 108,308-319, 2005). The following protocol may be used to assess the potential induction of lymphopenia for the test compounds when administered as a single oral dose to CD1 mice.
A suspension of 5% Gelucire may be used as the vehicle to prepare dosing formulations and to dose vehicle control animals. Test compound is weighed and transferred to a 15 mL Falcon tube or equivalent to make stock formulations. The appropriate amount of 5% Gelucire vehicle is then added to the tube. The resulting formulation is sonicated with a probe sonicator until no obvious particulate matter is apparent. About 500 mL Gelucire (Gattefosse, St-Priest, Cedex, France) is melted in a 1000 W microwave oven set for 3 minutes on high power. The appropriate amount of Gelucire is added to deionized water to form 5% (vol/vol) aqueous Gelucire.
Blood samples (˜0.6-0.8 mL) may be collected via intracardiac puncture at appropriate time points. The mice are anesthetized by carbon dioxide and euthanized via exanguination by intracardiac puncture. Blood samples are obtained and placed in tubes containing EDTA. Lymphocytes (L, %) count is measured with Abbott Cell-Dyn 3700 automated analyzer.
Samples of blood were taken to determine terminal half life (T½) and clearance of the compounds, using well accepted methods for such assays.

T2 sequence (O95136 whole entry): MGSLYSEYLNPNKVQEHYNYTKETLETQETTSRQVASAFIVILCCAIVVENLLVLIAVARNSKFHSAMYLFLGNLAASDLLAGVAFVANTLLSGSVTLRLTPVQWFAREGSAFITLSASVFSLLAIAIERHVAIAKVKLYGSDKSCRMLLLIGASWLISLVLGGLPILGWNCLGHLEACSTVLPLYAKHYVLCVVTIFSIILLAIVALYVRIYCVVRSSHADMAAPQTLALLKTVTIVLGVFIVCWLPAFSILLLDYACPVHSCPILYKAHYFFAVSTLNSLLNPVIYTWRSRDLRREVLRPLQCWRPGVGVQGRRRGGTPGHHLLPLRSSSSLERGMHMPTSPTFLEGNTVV
T1 sequence (P21453 whole entry): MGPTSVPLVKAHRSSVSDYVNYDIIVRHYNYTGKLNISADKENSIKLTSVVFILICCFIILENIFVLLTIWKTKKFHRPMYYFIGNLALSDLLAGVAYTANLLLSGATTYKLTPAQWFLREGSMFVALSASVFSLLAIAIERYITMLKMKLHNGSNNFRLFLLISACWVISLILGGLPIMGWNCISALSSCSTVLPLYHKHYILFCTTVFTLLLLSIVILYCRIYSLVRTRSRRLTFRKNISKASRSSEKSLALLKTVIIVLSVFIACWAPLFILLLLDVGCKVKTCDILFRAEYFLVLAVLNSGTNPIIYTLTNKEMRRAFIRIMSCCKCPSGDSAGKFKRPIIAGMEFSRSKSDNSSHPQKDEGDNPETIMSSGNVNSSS
T5 sequence (Q9H228 whole entry): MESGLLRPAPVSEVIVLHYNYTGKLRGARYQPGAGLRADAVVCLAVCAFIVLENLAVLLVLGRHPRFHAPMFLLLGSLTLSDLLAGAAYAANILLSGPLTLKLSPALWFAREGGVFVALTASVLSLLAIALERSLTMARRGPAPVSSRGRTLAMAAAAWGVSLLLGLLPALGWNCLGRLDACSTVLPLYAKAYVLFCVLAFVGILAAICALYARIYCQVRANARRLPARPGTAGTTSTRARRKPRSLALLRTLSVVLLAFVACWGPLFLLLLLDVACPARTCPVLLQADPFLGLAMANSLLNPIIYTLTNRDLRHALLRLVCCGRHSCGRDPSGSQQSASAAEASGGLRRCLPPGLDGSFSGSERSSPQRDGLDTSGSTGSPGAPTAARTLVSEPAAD
T3 sequence (Q99500 whole entry): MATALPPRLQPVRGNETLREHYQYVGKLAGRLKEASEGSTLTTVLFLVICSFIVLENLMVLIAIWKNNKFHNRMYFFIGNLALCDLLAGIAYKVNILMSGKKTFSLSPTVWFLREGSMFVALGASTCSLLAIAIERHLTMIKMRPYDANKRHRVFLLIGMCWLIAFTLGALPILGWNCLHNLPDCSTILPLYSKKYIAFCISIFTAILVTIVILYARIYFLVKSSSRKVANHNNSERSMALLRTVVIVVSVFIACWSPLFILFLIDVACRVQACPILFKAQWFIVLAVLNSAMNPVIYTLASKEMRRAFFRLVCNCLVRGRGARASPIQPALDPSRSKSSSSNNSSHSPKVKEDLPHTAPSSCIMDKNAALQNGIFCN

SMILES | Ki [1] [nM] | IC50 [2] [nM] | IC50 [3] [nM] | IC50 [4] [nM] | IC50 [5] [nM] | half-life [6] [h] | clearance [6] [mL/min/kg]
CC(C)Cc1ccc(-c2nc(-c3ccc([C@@H](C)N[C@H]4C[C@H](C(=O)O)C4)cc3)no2)cc1 [trans-3-{[(1R)-1-{-4-[5-(4-Isobutylphenyl)-1-1,2,4-oxadiazol-3-yl]phenyl}ethyl]amino}cyclobutanecarboxylic acid] | 4.6 | > 1000 | > 1000 | 438 | 15 |  | 
CC(C)Cc1ccc(-c2nc(-c3ccc([C@H](C)N[C@H]4C[C@@H](C(=O)O)C4)cc3)no2)cc1 [cis-3-{[(1S)-1-{4-[5-(4-isobutylphenyl)-1,2,4-oxadiazol-3-yl]phenyl}ethyl]amino}cyclobutanecarboxylic acid, hydrochloride salt] | 2.7 | > 1000 | > 1000 | 331 | 11 | 6.7 | 5.11
CC(C)Cc1ccc(-c2nc(-c3ccc([C@@H](C)N[C@H]4C[C@@H](C(=O)O)C4)cc3)no2)cc1 [cis-3-{[(1R)-1-{4-[5-(4-Isobutylphenyl)-1,2,4-oxadiazol-3-yl]phenyl}ethyl]amino}cyclobutanecarboxylic acid] | 0.29 | > 1000 | > 1000 | 35 | 2.9 | 5.2 | 6
CCCCCCCCCCCCC/C=C/[C@@H](O)[C@@H](N)COP(=O)(O)O [Example S1P, sphingosine-1-phosphate, reference compound] | 0.16 |  | 7.1 | 15 |  |  | 
